Columns and labels:
[1] = molecular target: T1, EGFR (L858R) (Homo sapiens, UniProt P00533, L858R); assay: In vitro kinase assay, EGFR (L858R); assay type: biochemical
T1 construct: purchased Millipore UK Ltd., Dundee, UK (now Eurofins Scientific); KinaseProfiler / IC50 Profiler service
Procedure: (§1) All kinase assays were carried out using KinaseProfiler^TM and IC50 Profiler^TM (Millipore UK Ltd., Dundee, UK. Now Eurofins Scientific, Dundee, UK). All IC50 data were presented as the mean values. The Curves obtained to determine IC50 values were shown in Supporting Information (S1 Fig).

[2] = molecular target: T2, FGFR1 (Homo sapiens, UniProt P11362); assay: In vitro kinase assay, FGFR1; assay type: biochemical
T2 construct: purchased Millipore UK Ltd., Dundee, UK (now Eurofins Scientific); KinaseProfiler / IC50 Profiler service
Procedure: as §1

[3] = molecular target: T3, FGFR3 (Homo sapiens, UniProt P22607); assay: In vitro kinase assay, FGFR3; assay type: biochemical
T3 construct: purchased Millipore UK Ltd., Dundee, UK (now Eurofins Scientific); KinaseProfiler / IC50 Profiler service
Procedure: as §1

[4] = molecular target: T4, VEGFR-2 (Homo sapiens, UniProt P35968); assay: In vitro kinase assay, VEGFR-2; assay type: biochemical
T4 construct: purchased Millipore UK Ltd., Dundee, UK (now Eurofins Scientific); KinaseProfiler / IC50 Profiler service
Procedure: as §1

[5] = molecular target: T5, CaMKIIγ (h) (Homo sapiens, UniProt Q13555); assay: Kinase profile, CaMKIIγ; assay type: biochemical; conditions: mean ± S.D.
T5 construct: purchased Millipore (now Eurofins) KinaseProfiler / IC50 Profiler
Procedure: as §1

[6] = molecular target: T6, CDK2/cyclin E (h) (Homo sapiens, UniProt P24941); assay: Kinase profile, CDK2/cyclin E; assay type: biochemical; conditions: mean ± S.D.
T6 construct: purchased Millipore (now Eurofins) KinaseProfiler / IC50 Profiler
Procedure: as §1

[7] = molecular target: T7, CDK7/cyclin H/MAT1 (h) (Homo sapiens, UniProt P50613); assay: Kinase profile, CDK7/cyclin H/MAT1; assay type: biochemical; conditions: mean ± S.D.
T7 construct: purchased Millipore (now Eurofins) KinaseProfiler / IC50 Profiler
Procedure: as §1

[8] = molecular target: T8, CDK9/cyclin T1 (h) (Homo sapiens, UniProt P50750); assay: Kinase profile, CDK9/cyclin T1; assay type: biochemical; conditions: mean ± S.D.
T8 construct: purchased Millipore (now Eurofins) KinaseProfiler / IC50 Profiler
Procedure: as §1

[9] = molecular target: T9, FLT3 (h) (Homo sapiens, UniProt P36888); assay: Kinase profile, FLT3; assay type: biochemical; conditions: mean ± S.D.
T9 construct: purchased Millipore (now Eurofins) KinaseProfiler / IC50 Profiler
Procedure: as §1

[10] = molecular target: T10, IR (h) (Homo sapiens, UniProt P06213); assay: Kinase profile, IR; assay type: biochemical; conditions: mean ± S.D.
T10 construct: purchased Millipore (now Eurofins) KinaseProfiler / IC50 Profiler
Procedure: as §1

[11] = molecular target: T11, LKB1 (h) (Homo sapiens, UniProt Q15831); assay: Kinase profile, LKB1; assay type: biochemical; conditions: mean ± S.D.
T11 construct: purchased Millipore (now Eurofins) KinaseProfiler / IC50 Profiler
Procedure: as §1

[12] = molecular target: T12, MAPK2 (h) (Homo sapiens, UniProt P28482); assay: Kinase profile, MAPK2; assay type: biochemical; conditions: mean ± S.D.
T12 construct: purchased Millipore (now Eurofins) KinaseProfiler / IC50 Profiler
Procedure: as §1

[13] = molecular target: T13, PKA (h) (Homo sapiens, UniProt P17612); assay: Kinase profile, PKA; assay type: biochemical; conditions: mean ± S.D.
T13 construct: purchased Millipore (now Eurofins) KinaseProfiler / IC50 Profiler
Procedure: as §1

[14] = molecular target: T14, PKCη (h) (Homo sapiens, UniProt P24723); assay: Kinase profile, PKCη; assay type: biochemical; conditions: mean ± S.D.
T14 construct: purchased Millipore (now Eurofins) KinaseProfiler / IC50 Profiler
Procedure: as §1

[15] = molecular target: T15, PKCι (h) (Homo sapiens, UniProt P41743); assay: Kinase profile, PKCι; assay type: biochemical; conditions: mean ± S.D.
T15 construct: purchased Millipore (now Eurofins) KinaseProfiler / IC50 Profiler
Procedure: as §1

[16] = molecular target: T16, PKCθ (h) (Homo sapiens, UniProt Q04759); assay: Kinase profile, PKCθ; assay type: biochemical; conditions: mean ± S.D.
T16 construct: purchased Millipore (now Eurofins) KinaseProfiler / IC50 Profiler
Procedure: as §1

[17] = molecular target: T17, PKCζ (h) (Homo sapiens, UniProt Q05513); assay: Kinase profile, PKCζ; assay type: biochemical; conditions: mean ± S.D.
T17 construct: purchased Millipore (now Eurofins) KinaseProfiler / IC50 Profiler
Procedure: as §1

[18] = molecular target: T18, PKG1β (h) (Homo sapiens, UniProt Q13976); assay: Kinase profile, PKG1β; assay type: biochemical; conditions: mean ± S.D.
T18 construct: purchased Millipore (now Eurofins) KinaseProfiler / IC50 Profiler
Procedure: as §1

[19] = molecular target: T19, ROCK-II (h) (Homo sapiens, UniProt O75116); assay: Kinase profile, ROCK-II; assay type: biochemical; conditions: mean ± S.D.
T19 construct: purchased Millipore (now Eurofins) KinaseProfiler / IC50 Profiler
Procedure: as §1

[20] = system: HCC827 cells; assay: HCC827 cell viability assay; assay type: cell-based; conditions: Homo sapiens, 72 h, read-out: HCC827 IC50 (anti-proliferative activity)
Procedure: HCC827 cells were purchased from the American Type Culture Collection (ATCC, Manassas, VA, USA). […] Human umbilical vein endothelial cells (HUVECs, ScienCell Research Laboratories, Carlsbad, CA, USA) were cultured in endothelial growth medium-2 (EGM-2; Lonza, Walkersville, MD, USA) from passages 3 to 6.
After a 24-hour incubation, the cells were treated with a series of test compound dilutions for 72 hours. Cell viability was assessed using EZ-Cytox (Daeil Lab Service, Seoul, South Korea) according to the manufacturer’s instructions.
Cells were incubated for 72 h with a range of concentrations of MKP101, and cell viability was measured using the WST-1 assay. […] Western blot analysis using antibodies to phosphorylated and total EGFR from a representative experiment is shown. Cells were incubated for 3 h at the indicated concentration. (C) Graph showing the relative intensities of the total and phosphorylated EGFR as determined by band densitometry. IC50, half-maximal inhibitory concentration.

[21] = system: phosphorylated EGFR; assay: Western blot of EGFR phosphorylation in HCC827 cells; assay type: cell-based; conditions: 3 h
Procedure: Fig 3 MKP101 inhibits proliferation of epidermal growth factor receptor (EGFR)-tyrosine kinase inhibitor (TKI)-sensitive non-small cell lung cancer (NSCLC) cells. (A) Inhibition of HCC827 cell proliferation. Cells were incubated for 72 h with a range of concentrations of MKP101, and cell viability was measured using the WST-1 assay. […] (B) Inhibition of EGFR phosphorylation in HCC827 cells. Western blot analysis using antibodies to phosphorylated and total EGFR from a representative experiment is shown. Cells were incubated for 3 h at the indicated concentration. (C) Graph showing the relative intensities of the total and phosphorylated EGFR as determined by band densitometry. IC50, half-maximal inhibitory concentration.

[22] = system: HUVECs; assay: VEGF-induced scratch wound migration assay; assay type: cell-based, human; conditions: VEGF 50 ng/mL, compound 0.5 μg/mL, 8 hours
Procedure: For the cell proliferation assays, cells were incubated overnight in endothelial basal media (EBM; Lonza, Walkersville, MD, USA) containing 0.5% FBS or supplemented with VEGF-A and/or VEGF inhibitors. The cells were washed with PBS and counted in 4 random microscope fields. The tube formation assay was performed by seeding cells on Matrigel-coated plates (BD Bioscience, Bedford, MA, USA) and incubating in EBM containing 0.5% FBS or supplemented with VEGF-A and/or VEGF inhibitors. After overnight incubation, tubule networks were quantified by measuring the tubule length in 4 random microscope fields. For the analysis of scratch wound migration, confluent cell monolayers grown on 6-well plates were scratched using a micropipette tip. After the plates were washed with PBS to remove dislodged cells and media, they were incubated with EBM containing 0.5% FBS or supplemented with VEGF and/or VEGF inhibitors for 8 hours. Cell migration was observed by optical microscopy and quantified by measuring the number of cells that had migrated from the wound edges.

T4 sequence (P35968 20-1356): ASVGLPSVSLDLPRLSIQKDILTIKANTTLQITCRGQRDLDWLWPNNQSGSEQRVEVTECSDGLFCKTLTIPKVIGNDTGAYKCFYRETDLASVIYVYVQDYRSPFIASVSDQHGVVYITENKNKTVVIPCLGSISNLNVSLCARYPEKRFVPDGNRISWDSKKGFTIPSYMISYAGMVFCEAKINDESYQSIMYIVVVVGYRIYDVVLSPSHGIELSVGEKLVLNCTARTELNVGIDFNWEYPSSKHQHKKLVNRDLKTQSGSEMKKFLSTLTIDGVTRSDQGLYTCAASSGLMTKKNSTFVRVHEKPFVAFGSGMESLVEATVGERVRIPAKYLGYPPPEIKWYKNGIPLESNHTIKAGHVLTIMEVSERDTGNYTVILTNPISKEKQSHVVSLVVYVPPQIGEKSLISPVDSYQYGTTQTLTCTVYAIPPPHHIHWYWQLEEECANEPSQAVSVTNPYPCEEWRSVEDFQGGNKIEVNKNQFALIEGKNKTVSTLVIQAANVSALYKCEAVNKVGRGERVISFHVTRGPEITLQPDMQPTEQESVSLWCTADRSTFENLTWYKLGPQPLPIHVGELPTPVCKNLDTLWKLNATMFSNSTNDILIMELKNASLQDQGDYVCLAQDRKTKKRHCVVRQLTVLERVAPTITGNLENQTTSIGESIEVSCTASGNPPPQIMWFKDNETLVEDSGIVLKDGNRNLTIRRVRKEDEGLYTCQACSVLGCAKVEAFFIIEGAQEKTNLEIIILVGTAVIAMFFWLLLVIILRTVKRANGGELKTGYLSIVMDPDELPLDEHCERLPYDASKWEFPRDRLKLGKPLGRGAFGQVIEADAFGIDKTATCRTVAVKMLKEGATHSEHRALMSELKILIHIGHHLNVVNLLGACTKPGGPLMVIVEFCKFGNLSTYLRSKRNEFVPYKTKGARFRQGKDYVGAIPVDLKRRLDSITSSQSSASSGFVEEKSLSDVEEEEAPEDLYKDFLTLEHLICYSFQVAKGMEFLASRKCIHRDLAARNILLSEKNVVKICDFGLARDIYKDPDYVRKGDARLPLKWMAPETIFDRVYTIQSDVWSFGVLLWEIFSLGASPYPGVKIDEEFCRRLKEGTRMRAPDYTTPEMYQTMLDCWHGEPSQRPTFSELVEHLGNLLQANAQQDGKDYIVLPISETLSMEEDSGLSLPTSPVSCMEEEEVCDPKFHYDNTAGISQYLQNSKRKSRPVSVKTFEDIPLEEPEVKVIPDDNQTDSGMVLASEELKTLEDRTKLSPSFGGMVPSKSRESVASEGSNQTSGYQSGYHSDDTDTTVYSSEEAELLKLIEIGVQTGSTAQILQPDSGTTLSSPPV
T1 sequence (P00533 25-1210 L858R): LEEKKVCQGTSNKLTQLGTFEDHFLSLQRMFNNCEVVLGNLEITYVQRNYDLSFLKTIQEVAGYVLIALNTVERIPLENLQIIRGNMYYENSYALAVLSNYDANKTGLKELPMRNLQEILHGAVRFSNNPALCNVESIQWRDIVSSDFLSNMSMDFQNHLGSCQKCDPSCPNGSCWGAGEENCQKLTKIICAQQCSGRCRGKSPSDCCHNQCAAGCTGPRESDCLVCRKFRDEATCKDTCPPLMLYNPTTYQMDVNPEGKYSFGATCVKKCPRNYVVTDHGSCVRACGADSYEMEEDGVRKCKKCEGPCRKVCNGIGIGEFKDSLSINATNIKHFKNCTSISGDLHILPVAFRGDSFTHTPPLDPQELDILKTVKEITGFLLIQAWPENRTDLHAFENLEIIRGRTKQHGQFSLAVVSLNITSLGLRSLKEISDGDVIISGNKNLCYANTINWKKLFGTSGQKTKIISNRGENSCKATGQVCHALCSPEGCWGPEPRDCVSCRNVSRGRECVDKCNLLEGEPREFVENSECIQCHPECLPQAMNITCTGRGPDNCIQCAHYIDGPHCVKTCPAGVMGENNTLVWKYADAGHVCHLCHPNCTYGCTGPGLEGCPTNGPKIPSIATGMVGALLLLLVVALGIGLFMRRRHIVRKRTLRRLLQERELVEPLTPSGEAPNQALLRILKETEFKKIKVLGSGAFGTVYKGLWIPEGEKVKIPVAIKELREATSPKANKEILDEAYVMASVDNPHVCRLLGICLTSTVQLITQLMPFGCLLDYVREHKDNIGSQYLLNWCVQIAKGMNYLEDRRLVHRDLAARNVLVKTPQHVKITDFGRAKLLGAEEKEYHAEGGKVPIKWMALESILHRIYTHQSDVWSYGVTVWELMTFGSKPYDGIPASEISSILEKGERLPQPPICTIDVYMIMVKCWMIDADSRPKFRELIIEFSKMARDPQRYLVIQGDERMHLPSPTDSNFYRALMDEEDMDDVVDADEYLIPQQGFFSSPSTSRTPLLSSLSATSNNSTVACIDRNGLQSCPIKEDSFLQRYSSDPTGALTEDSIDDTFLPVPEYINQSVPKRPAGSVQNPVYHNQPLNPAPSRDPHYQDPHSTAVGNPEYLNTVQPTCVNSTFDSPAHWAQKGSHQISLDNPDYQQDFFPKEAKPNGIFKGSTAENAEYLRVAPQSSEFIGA
T2 sequence (P11362 22-822): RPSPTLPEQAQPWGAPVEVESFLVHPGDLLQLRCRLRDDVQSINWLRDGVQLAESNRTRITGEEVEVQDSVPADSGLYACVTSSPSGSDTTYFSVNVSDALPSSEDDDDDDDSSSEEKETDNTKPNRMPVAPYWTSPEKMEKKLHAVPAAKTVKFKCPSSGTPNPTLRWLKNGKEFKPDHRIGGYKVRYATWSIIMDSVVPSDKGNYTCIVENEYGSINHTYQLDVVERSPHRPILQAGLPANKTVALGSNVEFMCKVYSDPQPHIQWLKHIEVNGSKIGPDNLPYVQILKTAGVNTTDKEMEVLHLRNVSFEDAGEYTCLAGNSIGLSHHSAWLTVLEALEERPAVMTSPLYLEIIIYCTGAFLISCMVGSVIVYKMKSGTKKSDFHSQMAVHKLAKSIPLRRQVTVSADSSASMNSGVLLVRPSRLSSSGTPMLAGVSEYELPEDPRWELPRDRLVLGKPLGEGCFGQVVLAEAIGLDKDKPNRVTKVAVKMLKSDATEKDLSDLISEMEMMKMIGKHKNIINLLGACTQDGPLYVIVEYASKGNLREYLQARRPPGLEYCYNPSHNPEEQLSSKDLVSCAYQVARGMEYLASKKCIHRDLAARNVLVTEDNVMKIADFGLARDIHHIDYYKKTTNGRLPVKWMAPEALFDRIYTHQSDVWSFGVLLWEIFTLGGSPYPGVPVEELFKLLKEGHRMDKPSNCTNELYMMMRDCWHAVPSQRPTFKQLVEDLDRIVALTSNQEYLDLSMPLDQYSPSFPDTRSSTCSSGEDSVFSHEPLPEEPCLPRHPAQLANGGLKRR
T3 sequence (P22607 23-806): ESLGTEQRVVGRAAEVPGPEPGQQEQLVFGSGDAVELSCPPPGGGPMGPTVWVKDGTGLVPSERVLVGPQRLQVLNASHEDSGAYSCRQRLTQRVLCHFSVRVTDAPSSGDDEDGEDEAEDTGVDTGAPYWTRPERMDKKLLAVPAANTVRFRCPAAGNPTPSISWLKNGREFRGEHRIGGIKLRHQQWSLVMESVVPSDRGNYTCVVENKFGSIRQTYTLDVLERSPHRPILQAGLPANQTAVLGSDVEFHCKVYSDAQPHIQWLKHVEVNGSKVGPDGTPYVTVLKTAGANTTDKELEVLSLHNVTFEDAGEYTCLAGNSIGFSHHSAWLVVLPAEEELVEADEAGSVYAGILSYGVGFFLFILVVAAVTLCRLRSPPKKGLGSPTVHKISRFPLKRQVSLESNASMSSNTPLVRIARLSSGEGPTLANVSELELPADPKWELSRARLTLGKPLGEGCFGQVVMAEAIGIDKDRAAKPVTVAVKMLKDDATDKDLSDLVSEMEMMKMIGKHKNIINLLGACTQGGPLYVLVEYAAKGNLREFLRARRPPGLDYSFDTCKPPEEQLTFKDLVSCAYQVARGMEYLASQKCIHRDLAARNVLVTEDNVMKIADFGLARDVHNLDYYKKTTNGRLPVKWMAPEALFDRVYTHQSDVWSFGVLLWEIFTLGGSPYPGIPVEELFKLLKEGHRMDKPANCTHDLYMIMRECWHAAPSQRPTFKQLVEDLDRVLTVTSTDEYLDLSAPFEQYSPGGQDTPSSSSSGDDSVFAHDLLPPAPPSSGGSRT
T12 sequence (P28482 whole entry): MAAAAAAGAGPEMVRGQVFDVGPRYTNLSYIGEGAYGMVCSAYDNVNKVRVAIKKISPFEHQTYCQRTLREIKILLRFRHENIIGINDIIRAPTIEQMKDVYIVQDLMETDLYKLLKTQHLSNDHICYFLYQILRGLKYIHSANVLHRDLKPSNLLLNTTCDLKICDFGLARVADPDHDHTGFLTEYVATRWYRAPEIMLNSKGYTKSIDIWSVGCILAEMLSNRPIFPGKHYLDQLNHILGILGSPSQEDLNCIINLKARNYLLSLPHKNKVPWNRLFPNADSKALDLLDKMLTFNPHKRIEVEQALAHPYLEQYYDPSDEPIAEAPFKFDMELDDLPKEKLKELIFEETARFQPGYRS
T5 sequence (Q13555 whole entry): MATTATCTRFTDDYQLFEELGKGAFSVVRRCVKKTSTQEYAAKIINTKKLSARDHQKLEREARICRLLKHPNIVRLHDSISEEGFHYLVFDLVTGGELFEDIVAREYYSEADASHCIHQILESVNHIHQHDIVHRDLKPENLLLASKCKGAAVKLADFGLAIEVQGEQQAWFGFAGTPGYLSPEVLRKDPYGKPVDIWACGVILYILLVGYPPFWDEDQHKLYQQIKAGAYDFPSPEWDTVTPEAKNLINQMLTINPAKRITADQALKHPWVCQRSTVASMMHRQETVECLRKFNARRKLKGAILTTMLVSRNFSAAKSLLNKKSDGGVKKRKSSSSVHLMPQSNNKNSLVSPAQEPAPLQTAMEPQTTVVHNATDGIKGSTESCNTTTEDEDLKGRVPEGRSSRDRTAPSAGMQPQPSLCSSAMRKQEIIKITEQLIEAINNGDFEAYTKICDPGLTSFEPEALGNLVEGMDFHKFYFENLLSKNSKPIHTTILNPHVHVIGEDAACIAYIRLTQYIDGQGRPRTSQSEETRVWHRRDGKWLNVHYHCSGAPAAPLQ

In the case of Cc1ccc(Nc2nccc(N(C)c3ccc4[nH]ccc4c3)n2)cc1S(N)(=O)=O [MKP101], the inhibition at 1 µM ([1]; 1 μM, mean ± S.D., read-out: % inhibition at 1 μM, EGFR(L858R)(h)) is reported as 96 ± 1%, the IC50 ([1]; in vitro kinase assay, mean values) is reported as 17 nM and the inhibition at 1 µM ([2]; 1 μM, mean ± S.D., read-out: % inhibition at 1 μM, FGFR1 (h)) is reported as 98 ± 1%. It also gave an IC50 ([2]; in vitro kinase assay) of 28 nM, an inhibition at 1 µM ([3]; 1 μM, mean ± S.D., read-out: % inhibition at 1 μM, FGFR3 (h)) of 96% and an IC50 ([3]; in vitro kinase assay) of 43 nM. It also gave an inhibition at 1 µM ([4]; 1 μM, mean ± S.D., read-out: % inhibition at 1 μM, VEGFR-2 (h)) of 94 ± 2%, an IC50 ([4]; in vitro kinase assay) of 32 nM and an inhibition at 1 µM [5] of 37 ± 2%. For the same compound, the inhibition at 1 µM [6] was 8 ± 1%, the inhibition at 1 µM [7] was 16 ± 5% and the inhibition at 1 µM [8] was 54 ± 4%. The inhibition at 1 µM [9] was 91 ± 1%, the inhibition at 1 µM [10] was 14 ± 3% and the inhibition at 1 µM [11] was 0%. It also gave an inhibition at 1 µM [12] of 0%, an inhibition at 1 µM [13] of 7 ± 6% and an inhibition at 1 µM [14] of 0%. For the same compound, the inhibition at 1 µM [15] was 5 ± 6%, the inhibition at 1 µM [16] was 16 ± 2% and the inhibition at 1 µM [17] was 5 ± 4%. The inhibition at 1 µM [18] was 7 ± 1%, the inhibition at 1 µM [19] was 4 ± 1% and the IC50 [20] was 160 nM. The “Inhibition of EGFR phosphorylation” value [21] was “reduced the levels of phosphorylated EGFR” and the “Effect on VEGF-induced increase in migration” value [22] was “significantly inhibited”.

Reference: article PMC4581874 (PLoS ONE, 2015)
